Data taken from BindingDB's records for doi:10.1021/np070341r (Leibniz-Institute For Natural Product Research and …, 2008).

Target: Dual specificity tyrosine-phosphorylation-regulated kinase 1A (Homo sapiens, UniProt Q13627)
Assay: Inhibition of human recombinant DYRK1A

IC50 | Structure (SMILES)
> 100 µM | COC(=O)[C@@]1(Cc2ccc(O)c(CC=C(C)C)c2)OC(=O)C(=O)C1c1ccc(O)cc1 (stereo partly drawn) [(S)-methyl 4-hydroxy-2-(4-hydroxy-3-(3-methylbut-2-enyl)benzyl)-3-(4-hydroxyphenyl)-5-oxo-2,5-dihydrofuran-2-carboxylate]
> 100 µM | COC(=O)[C@]1(Cc2ccc(OS(=O)(=O)O)c(CC=C(C)C)c2)OC(=O)C(=O)C1c1ccc(O)cc1 (some centres not stated) [butyrolactone I 4''-sulfate]
